Measurements from patent US12281149B2, “Modulators of G-protein coupled receptors” (priority 2021, dated 2025).
*1 amine or outer side, *2 acyl side, *3 side chain or, on linkers, in order; H or OH if unused. Where a SMILES comes first, the peptide text is derived from it. Side-chain parts run from the residue outwards. [ ]: non-standard residue; d: D form. The star is where a group is joined. C20 diacid = O=C(O)CCCCCCCCCCCCCCCCCCC(=O)*; X56 = CC(C)(C(=O)*)c1cc(F)cc(C(N)=O)c1; γGlu = O=C(O)[C@H](CCC(=O)[*:2])N[*:1]; X54 = Cc1cn(C(C)(C)C(=O)*)nc1C(F)(F)F; X82 = CC(C)(C(=O)*)n1cc(N)cn1; AEEA = NCCOCCOCC(=O)O; Aib = CC(C)(N)C(=O)O; βAla = NCCC(=O)O

What was measured:
Assay type in all cases: cell-based
GIP receptor [1] = biological target: T1, GIP receptor (Homo sapiens, UniProt P48546); test: PathHunter β-arrestin assay, GIP receptor; design: host or cells: PathHunter CHO-K1 GIPR β-Arrestin Cell Line; settings: β-arrestin-2 recruitment, PathHunter CHO-K1 GIPR β-Arrestin Cell Line, 90 min at 37° C.; normalized to GIP; read-out: GIPR β Arrestin EC50
T1 sequence (P48546 22-466): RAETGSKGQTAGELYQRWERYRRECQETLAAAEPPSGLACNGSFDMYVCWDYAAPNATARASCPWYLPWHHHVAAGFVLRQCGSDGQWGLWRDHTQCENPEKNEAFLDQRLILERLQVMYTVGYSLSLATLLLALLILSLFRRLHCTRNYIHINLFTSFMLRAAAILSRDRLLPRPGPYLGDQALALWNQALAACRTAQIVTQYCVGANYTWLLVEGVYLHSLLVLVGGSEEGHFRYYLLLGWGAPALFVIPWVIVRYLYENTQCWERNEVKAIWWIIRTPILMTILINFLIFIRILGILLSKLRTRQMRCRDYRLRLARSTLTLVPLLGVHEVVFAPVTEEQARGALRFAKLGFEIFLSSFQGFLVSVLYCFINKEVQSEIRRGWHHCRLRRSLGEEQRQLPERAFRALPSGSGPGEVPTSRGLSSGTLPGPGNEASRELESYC

GIP receptor [2] = biological target: T1, GIP receptor; test: HitHunter cAMP assay, GIP receptor; settings: for EC50: CHO cells stably expressing GIP receptor, cAMP accumulation, 30 min, read-out: EC50 GIP-1R; for Emax: CHO cells, cAMP, normalized to maximum signal from GIP (high) and DMSO (low), read-out: Emax GIP-1R
Experimental: CAMP accumulation was measured in Chinese hamster ovary (CHO) cells stably expressing the human GLP-1 receptor or GIP receptor using the HitHunter CAMP Assay for Small Molecules Kit (Eurofins). Briefly, cells were grown in Ham's F12 Nutrient Mix with 10% FBS and lifted with Cell dissociation buffer, Enzyme free, PBS based (ThermoFisher). Cells were pelleted and resuspended in Hank's buffered saline solution with 10 mM Hepes and 625 μM 3-isobutyl-1-methylxanthine. The antibody reagent was then added to cells at a 1:2 ratio and 5 μL of mixture was seeded in 384-well small volume white assay plates, at 10,000 cells/well. Cells were then treated with 50 nl compound in DMSO using an ECHO 550 acoustic dispenser (Labcyte) in a 20-point dose response format in triplicate for 30 min. Cells were the lysed and detection reagents added according to the manufacturer's protocol. After overnight incubation, luminescence was measured using a Perkin Elmer Envision plate reader. Raw data was normalized to the maximum signal from GLP-1 or GIP (high) and DMSO (low). Dose response curves were analyzed using GraphPad Prism 9.0.

GLP-1 receptor [3] = biological target: T2, GLP-1 receptor (Homo sapiens, UniProt P43220); test: HitHunter cAMP assay, GLP-1 receptor; settings: for EC50: CHO cells stably expressing human GLP-1 receptor, cAMP accumulation, 30 min, read-out: EC50 GLP-1R; for Emax: CHO cells, cAMP, normalized to maximum signal from GLP-1 (high) and DMSO (low), read-out: Emax GLP-1R
T2 sequence (P43220 24-463): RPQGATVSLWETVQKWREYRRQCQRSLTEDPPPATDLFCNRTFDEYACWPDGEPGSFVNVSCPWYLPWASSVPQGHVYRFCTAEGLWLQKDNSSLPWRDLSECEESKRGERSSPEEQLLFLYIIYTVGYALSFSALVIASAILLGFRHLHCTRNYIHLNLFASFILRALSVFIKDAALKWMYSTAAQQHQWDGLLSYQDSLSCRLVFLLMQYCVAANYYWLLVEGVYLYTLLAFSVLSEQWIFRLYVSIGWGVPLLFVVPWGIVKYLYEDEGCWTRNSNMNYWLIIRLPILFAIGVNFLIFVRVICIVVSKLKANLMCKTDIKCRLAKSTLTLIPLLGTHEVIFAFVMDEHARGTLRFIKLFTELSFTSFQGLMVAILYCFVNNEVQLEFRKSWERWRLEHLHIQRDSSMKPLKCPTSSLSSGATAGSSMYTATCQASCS

GLP-1 receptor [4] = biological target: T2, GLP-1 receptor; test: PathHunter β-arrestin assay, GLP-1 receptor; design: host or cells: PathHunter CHO-K1 GLP1R β-Arrestin Cell Line; settings: β-arrestin-2 recruitment, PathHunter CHO-K1 GLP1R β-Arrestin Cell Line, 90 min at 37° C.; normalized to GLP-1; read-out: GLP-1R β Arrestin EC50

Structure (SMILES)	EC50 (GIP receptor [1]) [nM]	EC50 (GIP receptor [2]) [nM]	Emax (GIP receptor [2]) [%]	EC50 (GLP-1 receptor [3]) [nM]	Emax (GLP-1 receptor [3]) [%]	EC50 (GLP-1 receptor [4]) [nM]
CC[C@H](C)[C@H](NC(=O)[C@H](CO)NC(=O)[C@H](Cc1ccc(O)cc1)NC(=O)[C@H](CC(=O)O)NC(=O)[C@H](CO)NC(=O)[C@@H](NC(=O)[C@H](Cc1ccccc1)NC(=O)[C@@H](NC(=O)CNC(=O)[C@H](CCC(=O)O)NC(=O)CCNC(=O)C1(c2ccccc2)CCOCC1)[C@@H](C)O)[C@@H](C)O)C(=O)N[C@@H](Cc1ccc(O)cc1)C(=O)N[C@@H](CC(C)C)C(=O)N[C@@H](CC(=O)O)C(=O)N[C@@H](CCCCN)C(=O)N[C@@H](CCC(N)=O)C(=O)N[C@@H](C)C(=O)N[C@@H](C)C(=O)NC(C)(C)C(=O)N[C@@H](CCC(=O)O)C(=O)N[C@@H](Cc1ccccc1)C(=O)N[C@H](C(=O)N[C@@H](CC(N)=O)C(=O)N[C@@H](Cc1c[nH]c2ccccc12)C(=O)N[C@@H](CC(C)C)C(=O)N[C@@H](CC(C)C)C(=O)N[C@@H](C)C(=O)NCC(=O)NCC(=O)N1CCC[C@H]1C(=O)N[C@@H](CO)C(=O)N[C@@H](CO)C(=O)NCC(=O)N[C@@H](C)C(=O)N1CCC[C@H]1C(=O)N1CCC[C@H]1C(=O)N1CCC[C@H]1C(=O)N[C@@H](CO)C(=O)N[C@@H](CCCCNC(=O)COCCOCCNC(=O)COCCOCCNC(=O)CC[C@H](NC(=O)CCCCCCCCCCCCCCCCCCC(=O)O)C(=O)O)C(N)=O)C(C)C [Compound 154]	> 1000	10 to 100	106	1 to 10	99	> 1000
CC[C@H](C)[C@H](NC(=O)[C@H](CO)NC(=O)[C@H](Cc1ccc(O)cc1)NC(=O)[C@H](CC(=O)O)NC(=O)[C@H](CO)NC(=O)[C@@H](NC(=O)[C@H](Cc1ccccc1)NC(=O)[C@@H](NC(=O)CNC(=O)[C@H](CCC(=O)O)NC(=O)CCNC(=O)C1(c2ccc(Cl)cc2)CCCC1)[C@@H](C)O)[C@@H](C)O)C(=O)N[C@@H](Cc1ccc(O)cc1)C(=O)N[C@@H](CC(C)C)C(=O)N[C@@H](CC(=O)O)C(=O)N[C@@H](CCCCN)C(=O)N[C@@H](CCC(N)=O)C(=O)N[C@@H](C)C(=O)N[C@@H](C)C(=O)NC(C)(C)C(=O)N[C@@H](CCC(=O)O)C(=O)N[C@@H](Cc1ccccc1)C(=O)N[C@H](C(=O)N[C@@H](CC(N)=O)C(=O)N[C@@H](Cc1c[nH]c2ccccc12)C(=O)N[C@@H](CC(C)C)C(=O)N[C@@H](CC(C)C)C(=O)N[C@@H](C)C(=O)NCC(=O)NCC(=O)N1CCC[C@H]1C(=O)N[C@@H](CO)C(=O)N[C@@H](CO)C(=O)NCC(=O)N[C@@H](C)C(=O)N1CCC[C@H]1C(=O)N1CCC[C@H]1C(=O)N1CCC[C@H]1C(=O)N[C@@H](CO)C(=O)N[C@@H](CCCCNC(=O)COCCOCCNC(=O)COCCOCCNC(=O)CC[C@H](NC(=O)CCCCCCCCCCCCCCCCCCC(=O)O)C(=O)O)C(N)=O)C(C)C [Compound 155]	> 1000	10 to 100	104	1 to 10	101	> 1000
CC[C@H](C)[C@H](NC(=O)[C@H](CO)NC(=O)[C@H](Cc1ccc(O)cc1)NC(=O)[C@H](CC(=O)O)NC(=O)[C@H](CO)NC(=O)[C@@H](NC(=O)[C@H](Cc1ccccc1)NC(=O)[C@@H](NC(=O)CNC(=O)[C@H](CCC(=O)O)NC(=O)CCNC(=O)C1(c2ccccc2)CCC(=O)NC1)[C@@H](C)O)[C@@H](C)O)C(=O)N[C@@H](Cc1ccc(O)cc1)C(=O)N[C@@H](CC(C)C)C(=O)N[C@@H](CC(=O)O)C(=O)N[C@@H](CCCCN)C(=O)N[C@@H](CCC(N)=O)C(=O)N[C@@H](C)C(=O)N[C@@H](C)C(=O)NC(C)(C)C(=O)N[C@@H](CCC(=O)O)C(=O)N[C@@H](Cc1ccccc1)C(=O)N[C@H](C(=O)N[C@@H](CC(N)=O)C(=O)N[C@@H](Cc1c[nH]c2ccccc12)C(=O)N[C@@H](CC(C)C)C(=O)N[C@@H](CC(C)C)C(=O)N[C@@H](C)C(=O)NCC(=O)NCC(=O)N1CCC[C@H]1C(=O)N[C@@H](CO)C(=O)N[C@@H](CO)C(=O)NCC(=O)N[C@@H](C)C(=O)N1CCC[C@H]1C(=O)N1CCC[C@H]1C(=O)N1CCC[C@H]1C(=O)N[C@@H](CO)C(=O)N[C@@H](CCCCNC(=O)COCCOCCNC(=O)COCCOCCNC(=O)CC[C@H](NC(=O)CCCCCCCCCCCCCCCCCCC(=O)O)C(=O)O)C(N)=O)C(C)C (stereo partly drawn) [Compound 156]	> 1000	1 to 10	95	1 to 10	95	> 1000
CC[C@H](C)[C@H](NC(=O)[C@H](CC(C)C)NC(=O)[C@H](Cc1c[nH]c2ccccc12)NC(=O)[C@H](CCC(N)=O)NC(=O)[C@@H](NC(=O)[C@H](Cc1ccccc1)NC(=O)[C@H](C)NC(=O)[C@H](CCCCNC(=O)COCCOCCNC(=O)COCCOCCNC(=O)CC[C@H](NC(=O)CCCCCCCCCCCCCCCCCCC(=O)O)C(=O)O)NC(=O)[C@H](CCC(N)=O)NC(=O)[C@H](C)NC(=O)[C@@H](NC(=O)[C@H](CCCCN)NC(=O)[C@H](CC(=O)O)NC(=O)[C@H](CC(C)C)NC(=O)C(C)(C)NC(=O)[C@@H](NC(=O)[C@H](CO)NC(=O)[C@H](Cc1ccc(O)cc1)NC(=O)[C@H](CC(=O)O)NC(=O)[C@H](CO)NC(=O)[C@@H](NC(=O)[C@H](Cc1ccccc1)NC(=O)[C@@H](NC(=O)CNC(=O)[C@H](CCC(=O)O)NC(=O)CCNC(=O)C(C)(C)n1cc(N)cn1)[C@@H](C)O)[C@@H](C)O)[C@@H](C)CC)[C@@H](C)CC)C(C)C)C(=O)N[C@@H](C)C(=O)NCC(=O)NCC(=O)N1CCC[C@H]1C(=O)N[C@@H](CO)C(=O)N[C@@H](CO)C(=O)NCC(=O)N[C@@H](C)C(=O)N1CCC[C@H]1C(=O)N1CCC[C@H]1C(=O)N1CCC[C@H]1C(=O)N[C@@H](CO)C(N)=O [Compound 157] ({X82-βAla}-EGTFTSDYSI[Aib]LDKIAQK([AEEA-AEEA-γGlu-C20 diacid])AFVQWLIAGGPSSGAPPPS-NH2)	> 1000	10 to 100	106	0.1 to 1	100	> 1000
CC[C@H](C)[C@H](NC(=O)[C@H](CC(C)C)NC(=O)[C@H](Cc1c[nH]c2ccccc12)NC(=O)[C@H](CCC(N)=O)NC(=O)[C@@H](NC(=O)[C@H](Cc1ccccc1)NC(=O)[C@H](C)NC(=O)[C@H](CCCCNC(=O)COCCOCCNC(=O)COCCOCCNC(=O)CC[C@H](NC(=O)CCCCCCCCCCCCCCCCCCC(=O)O)C(=O)O)NC(=O)[C@H](CCC(N)=O)NC(=O)[C@H](C)NC(=O)[C@@H](NC(=O)[C@H](CCCCN)NC(=O)[C@H](CC(=O)O)NC(=O)[C@H](CC(C)C)NC(=O)C(C)(C)NC(=O)[C@@H](NC(=O)[C@H](CO)NC(=O)[C@H](Cc1ccc(O)cc1)NC(=O)[C@H](CC(=O)O)NC(=O)[C@H](CO)NC(=O)[C@@H](NC(=O)[C@H](Cc1ccccc1)NC(=O)[C@@H](NC(=O)CNC(=O)[C@H](CCC(=O)O)NC(=O)CCNC(=O)C(C)(C)n1cc(C)c(C(F)(F)F)n1)[C@@H](C)O)[C@@H](C)O)[C@@H](C)CC)[C@@H](C)CC)C(C)C)C(=O)N[C@@H](C)C(=O)NCC(=O)NCC(=O)N1CCC[C@H]1C(=O)N[C@@H](CO)C(=O)N[C@@H](CO)C(=O)NCC(=O)N[C@@H](C)C(=O)N1CCC[C@H]1C(=O)N1CCC[C@H]1C(=O)N1CCC[C@H]1C(=O)N[C@@H](CO)C(N)=O [Compound 158] ({X54-βAla}-EGTFTSDYSI[Aib]LDKIAQK([AEEA-AEEA-γGlu-C20 diacid])AFVQWLIAGGPSSGAPPPS-NH2)	> 1000	10 to 100	118	0.1 to 1	97	> 1000
CC[C@H](C)[C@H](NC(=O)[C@H](CC(C)C)NC(=O)[C@H](Cc1c[nH]c2ccccc12)NC(=O)[C@H](CCC(N)=O)NC(=O)[C@@H](NC(=O)[C@H](Cc1ccccc1)NC(=O)[C@H](C)NC(=O)[C@H](CCCCNC(=O)COCCOCCNC(=O)COCCOCCNC(=O)CC[C@H](NC(=O)CCCCCCCCCCCCCCCCCCC(=O)O)C(=O)O)NC(=O)[C@H](CCC(N)=O)NC(=O)[C@H](C)NC(=O)[C@@H](NC(=O)[C@H](CCCCN)NC(=O)[C@H](CC(=O)O)NC(=O)[C@H](CC(C)C)NC(=O)C(C)(C)NC(=O)[C@@H](NC(=O)[C@H](CO)NC(=O)[C@H](Cc1ccc(O)cc1)NC(=O)[C@H](CC(=O)O)NC(=O)[C@H](CO)NC(=O)[C@@H](NC(=O)[C@H](Cc1ccccc1)NC(=O)[C@@H](NC(=O)CNC(=O)[C@H](CCC(=O)O)NC(=O)CCNC(=O)C(C)(C)c1cc(F)cc(C(N)=O)c1)[C@@H](C)O)[C@@H](C)O)[C@@H](C)CC)[C@@H](C)CC)C(C)C)C(=O)N[C@@H](C)C(=O)NCC(=O)NCC(=O)N1CCC[C@H]1C(=O)N[C@@H](CO)C(=O)N[C@@H](CO)C(=O)NCC(=O)N[C@@H](C)C(=O)N1CCC[C@H]1C(=O)N1CCC[C@H]1C(=O)N1CCC[C@H]1C(=O)N[C@@H](CO)C(N)=O [Compound 159] ({X56-βAla}-EGTFTSDYSI[Aib]LDKIAQK([AEEA-AEEA-γGlu-C20 diacid])AFVQWLIAGGPSSGAPPPS-NH2)	> 1000	10 to 100	104	1 to 10	100	> 1000
